# Laboratory results reported in patent US20220330549A1, “USE OF N-BENZYLBENZAMIDE-BASED COMPOUND AS HERBICIDE” (Northwest A&F University, priority 2020, published 2022).
# How the values were obtained:
# Type in all cases: in vivo
# [1] = test system: Amaranthus retroflexus; test: Field test for weed control in a corn field; details: 150 g a.i./ha, 30 days after treatment
# Method: (§1) The weed control efficacy field test was performed in a corn field with some of the N-benzylbenzamide-based compounds of general formula I or II with reference to the method of GB/T 17980.42-2000. […] Spray treatments were performed in the stage where 2 leaves to 5 leaves were grown for the corns after the sowing. Representative compounds in the examples were used to prepare emulsifiable concentrates (10%), and spray treatments were performed with the concentrates in water at a dosage of 150 g(a.i.)/ha, and repeated 4 times for each treatment, and the area was 20 m^2. Oil dispersion with 25% of mesotrione was used as a control agent and applied at a dosage of 150 g(a.i.)/h. […] The herbicidal activities of the agents were evaluated on a scale of 1-9 levels according to the symptoms and severity of damage to the test weeds.
# (§2) Level 2: equivalent to 0 to 2.5% of the weed in the blank control area;
# (§3) Level 3: equivalent to 2.6 to 5% of the weed in the blank control area;
# (§4) Level 4: equivalent to 5.1 to 10% of the weed in the blank control area;
# (§5) Level 5: equivalent to 10.1 to 15% of the weed in the blank control area;
# (§6) Level 6: equivalent to 15.1 to 25% of the weed in the blank control area;
# (§7) Level 7: equivalent to 25.1 to 35% of the weed in the blank control area;
# (§8) Level 8: equivalent to 35.1 to 67.5% of the weed in the blank control area; and
# (§9) Level 9: equivalent to 67.6 to 100% of the weed in the blank control area.
# [2] = test system: Digitaria sanguinalis; test: Field test for weed control in a corn field; details: 150 g a.i./ha, after treatment
# Method: as §1, §2, §3, §4, §5, §6, §7, §8, §9
# [3] = test system: Acalypha australis; test: Field test for weed control in a corn field; details: 150 g a.i./ha, after treatment
# Method: as §1, §2, §3, §4, §5, §6, §7, §8, §9
# [4] = test system: green bristlegrass; test: Field test for weed control in a corn field; details: 150 g a.i./ha, after treatment
# Method: as §1, §2, §3, §4, §5, §6, §7, §8, §9
# [5] = test system: nutgrass flatsedge; test: Field test for weed control in a corn field; details: 150 g a.i./ha, after treatment
# Method: as §1, §2, §3, §4, §5, §6, §7, §8, §9
# [6] = test system: Barnyard grass; test: Field test for weed control in a corn field; details: 150 g a.i./ha, 30 days after treatment
# Method: as §1, §2, §3, §4, §5, §6, §7, §8, §9
# [7] = test system: Solanum nigrum; test: Field test for weed control in a corn field; details: 150 g a.i./ha, 30 days after treatment
# Method: as §1, §2, §3, §4, §5, §6, §7, §8, §9
# [8] = test system: Portulaca oleracea; test: Field test for weed control in a corn field; details: 150 g a.i./ha, after treatment
# Method: as §1, §2, §3, §4, §5, §6, §7, §8, §9
# [9] = test system: Chenopodium album; test: Field test for weed control in a corn field; details: 150 g a.i./ha, after treatment
# Method: as §1, §2, §3, §4, §5, §6, §7, §8, §9
# [10] = test system: Convolvulus arvensis; test: Field test for weed control in a corn field; details: 150 g a.i./ha, after treatment
# Method: as §1, §2, §3, §4, §5, §6, §7, §8, §9
# [11] = test system: goosegrass; test: Field test for weed control in a corn field; details: 150 g a.i./ha, after treatment
# Method: as §1, §2, §3, §4, §5, §6, §7, §8, §9
# [12] = test system: Amaranthus retroflexus; test: Herbicidal activity test for indoor pre-emergence soil treatment; parameters: key: 1-9 levels; higher = more weed remaining vs blank control; details: 150 g a.i./ha, visual inspection 21 days after treatment
# Method: (§10) The herbicidal activity test for indoor pre-emergence soil treatment was performed with some of the N-benzylbenzamide-based compounds of general formula I or II with reference to the method of NY/T 1155.3-2006. Neutral sandy loam soil having an organic content of ≤2% was added to fill ⅘ of the pot, and the soil was completely moistened by infiltrating irrigation from the bottom of the pot. The seeds of the test weed were evenly spread on the soil surface, and then covered by 0.5 cm to 2.0 cm of soil depending on the seed size. Representative compounds in the examples were used to prepare emulsifiable concentrates (10%), and spray treatments to the soil were performed 24 hours after the sowing with the test agents diluted with water, at a spraying dosage of 150 g(a.i.)/ha. Then, the results were investigated by visual inspection 21 days after the treatments. The herbicidal activity of the agent was evaluated on a scale of 1-9 levels according to the symptoms and severity of damage to the test weeds.
# as §2, §3, §4, §5, §6, §7, §8, §9
# [13] = test system: Digitaria sanguinalis; test: as above; parameters: key: 1-9 levels; higher = more weed remaining vs blank control; details: 150 g a.i./ha, visual inspection 21 days after treatment
# Method: as §10, §2, §3, §4, §5, §6, §7, §8, §9
# [14] = test system: green bristlegrass; test: as above; parameters: key: level 1-9; higher = more weed remaining vs blank control; details: 150 g a.i./ha, visual inspection 21 days after treatment
# Method: as §10, §2, §3, §4, §5, §6, §7, §8, §9
# [15] = test system: Piemarker; test: as above; parameters: key: level 1-9; higher = more weed remaining vs blank control; details: 150 g a.i./ha, visual inspection 21 days after treatment
# Method: as §10, §2, §3, §4, §5, §6, §7, §8, §9
# [16] = test system: Barnyard grass; test: as above; parameters: key: level 1-9; higher = more weed remaining vs blank control; details: 150 g a.i./ha, visual inspection 21 days after treatment
# Method: as §10, §2, §3, §4, §5, §6, §7, §8, §9
# [17] = test system: Humulus scandens; test: as above; details: 150 g a.i./ha, visual inspection 21 days after treatment
# Method: as §10, §2, §3, §4, §5, §6, §7, §8, §9
# [18] = test system: Amaranthus retroflexus; test: Herbicidal activity test for indoor post-emergence spraying on stems and leaves; parameters: key: grade level by weed remaining vs blank control, e.g. 5 = 10.1-15%; details: 150 g a.i./ha, visual inspection 21 days after treatment
# Method: (§11) The post-emergence herbicidal activity test was performed with some of the N-benzylbenzamide-based compounds of general formula I or II with reference to the method of NY/T 1155.4-2006. […] After the sowing, the weed was moved to a greenhouse for regular cultivation. […] Then, the results were investigated by visual inspection 21 days after the treatments. […] Level 5: equivalent to 10.1 to 15% of the weed in the blank control area; Level 6: equivalent to 15.1 to 25% of the weed in the blank control area; Level 7: equivalent to 25.1 to 35% of the weed in the blank control area; Level 8: equivalent to 35.1 to 67.5% of the weed in the blank control area; and […]
# [19] = test system: Digitaria sanguinalis; test: as above; parameters: key: grade level by weed remaining vs blank control, e.g. 5 = 10.1-15%; details: 150 g a.i./ha, visual inspection 21 days after treatment
# Method: as §11
# [20] = test system: green bristlegrass; test: as above; parameters: key: grade level by weed remaining vs blank control, e.g. 5 = 10.1-15%; details: 150 g a.i./ha, visual inspection 21 days after treatment
# Method: as §11
# [21] = test system: Piemarker; test: as above; parameters: key: grade level by weed remaining vs blank control, e.g. 5 = 10.1-15%; details: 150 g a.i./ha, visual inspection 21 days after treatment
# Method: as §11
# [22] = test system: Barnyard grass; test: as above; parameters: key: grade level by weed remaining vs blank control, e.g. 5 = 10.1-15%; details: 150 g a.i./ha, visual inspection 21 days after treatment
# Method: as §11
# [23] = test system: Humulus scandens; test: as above; parameters: key: grade level by weed remaining vs blank control, e.g. 5 = 10.1-15%; details: 150 g a.i./ha, visual inspection 21 days after treatment
# Method: as §11
# [24] = test system: Cyperaceae; test: Post-emergence herbicidal activity test in a paddy field; parameters: key: level scale; higher level = more weed left vs blank control; details: 150 g a.i./ha (penoxsulam control 250 g(a.i.)/h)
# Method: (§12) The post-emergence herbicidal activity test was performed in a paddy field with some of the N-benzylbenzamide-based compounds of general formula I or II with reference to the method of GB/T 17980.40-2000. […] Spray treatments were performed in the stage where 4 leaves to 5 leaves were grown for the rice seedlings which was about 1 month after the sowing. Representative compounds in the examples were used to prepare emulsifiable concentrates (10%), and spray treatments were performed with the concentrates in water at a dosage of 150 g(a.i.)/ha, and repeated 4 times for each treatment, and the area was 50 m^2. 25 g/L of penoxsulam suspension was used as a control agent and applied at a dosage of 250 g(a.i.)/h. The results were investigated by a value estimating survey method 15 days and 30 days after the treatments. The relative weed population quantities were estimated by comparing each agent treated area with an adjacent blank control area, and the results of which were investigated with the following grading standard method using the overall coverage of the weed population as an indicator.
# as §2, §3, §4, §5, §6, §7, §8, §9
# [25] = test system: Gramineae; test: as above; parameters: key: level scale; higher level = more weed left vs blank control; details: 150 g a.i./ha (penoxsulam control 250 g(a.i.)/h)
# Method: as §12, §2, §3, §4, §5, §6, §7, §8, §9
# [26] = test system: Broadleaf weed; test: as above; parameters: key: level scale; higher level = more weed left vs blank control; details: 150 g a.i./ha (penoxsulam control 250 g(a.i.)/h)
# Method: as §12, §2, §3, §4, §5, §6, §7, §8, §9
compound,measurement,setting,value
"COc1ccccc1C(=O)NCc1cccc(Cl)c1 [Compound A09, N-(3-chlorobenzyl)-2-methoxybenzamide]","Post-emergence weed control effect, Amaranthus retroflexus",[1],1
same,"Post-emergence weed control effect, Digitaria sanguinalis",[2],2 (equivalent to 0 to 2.5% of the weed in the blank control area)
same,"Post-emergence weed control effect, Acalypha australis",[3],2 (equivalent to 0 to 2.5% of the weed in the blank control area)
same,"Post-emergence weed control effect, Green bristlegrass",[4],2 (equivalent to 0 to 2.5% of the weed in the blank control area)
same,"Post-emergence weed control effect, Nutgrass flatsedge",[5],2 (equivalent to 0 to 2.5% of the weed in the blank control area)
same,"Post-emergence weed control effect, Barnyard grass",[6],2 (equivalent to 0 to 2.5% of the weed in the blank control area)
same,"Post-emergence weed control effect, Solanum nigrum",[7],2 (equivalent to 0 to 2.5% of the weed in the blank control area)
same,"Post-emergence weed control effect, Portulaca oleracea",[8],1
same,"Post-emergence weed control effect, Chenopodium album",[9],1
same,"Post-emergence weed control effect, Convolvulus arvensis",[10],2 (equivalent to 0 to 2.5% of the weed in the blank control area)
same,"Post-emergence weed control effect, Goose grass",[11],1
same,Herbicidal Activity Amaranthus retroflexus,[12],2 (equivalent to 0 to 2.5% of the weed in the blank control area)
same,Herbicidal Activity Digitaria sanguinalis,[13],2 (equivalent to 0 to 2.5% of the weed in the blank control area)
same,Herbicidal Activity Green bristlegrass,[14],2 (equivalent to 0 to 2.5% of the weed in the blank control area)
same,Herbicidal Activity Piemarker,[15],1
same,Herbicidal Activity Barnyard grass,[16],1
same,Herbicidal Activity Humulus scandens,[17],3 (equivalent to 2.6 to 5% of the weed in the blank control area)
same,Herbicidal Activity Amaranthus retroflexus,[18],1
same,Herbicidal Activity Digitaria sanguinalis,[19],1
same,Herbicidal Activity Green bristlegrass,[20],2 (equivalent to 0 to 2.5% of the weed in the blank control area)
same,Herbicidal Activity Piemarker,[21],1
same,Herbicidal Activity Barnyard grass,[22],1
same,Herbicidal Activity Humulus scandens,[23],1
same,Herbicidal activity 15 days after treatment Cyperaceae,[24]; 15 days after treatment,1
same,Herbicidal activity 30 days after treatment Cyperaceae,[24]; 30 days after treatment,2 (equivalent to 0 to 2.5% of the weed in the blank control area)
same,Herbicidal activity 15 days after treatment Gramineae,[25]; 15 days after treatment,2 (equivalent to 0 to 2.5% of the weed in the blank control area)
same,Herbicidal activity 30 days after treatment Gramineae,[25]; 30 days after treatment,2 (equivalent to 0 to 2.5% of the weed in the blank control area)
same,Herbicidal activity 15 days after treatment Broadleaf weed,[26]; 15 days after treatment,2 (equivalent to 0 to 2.5% of the weed in the blank control area)
same,Herbicidal activity 30 days after treatment Broadleaf weed,[26]; 30 days after treatment,2 (equivalent to 0 to 2.5% of the weed in the blank control area)
